Tests used:
[1] = system: B16F10 murine melanoma cells; experiment: B16F10 cell viability assay (EZ-Cytox); assay type: cell-based; settings: concentrations ≤20 μM, 48 h
Procedure: B16F10 murine melanoma cells were obtained from the American Type Culture Collection (ATCC, Manassas, VA, USA). Phosphate buffer solution (PBS), Dulbecco’s modified Eagle’s medium (DMEM), streptomycin, penicillin, trypsin, and fetal bovine serum (FBS) were purchased from Gibco/Thermo Fisher Scientific (Carlsbad, CA, USA). B16F10 cells were cultured in a DMEM solution comprising 10% heat-inactivated FBS, penicillin (100 IU/mL), and streptomycin (100 µg/mL), at 37 °C in a humidified 5% CO2 atmosphere. Experiments for anti-melanogenesis activity, cell viability, and anti-tyrosinase activity were assayed on these cells in 96- or 6-well culture plates.
Cell viability assays for B16F10 were performed using the EZ-Cytox assay (EZ-3000, DoGenBio, Seoul, Korea). In brief, B16F10 cells were seeded in a 96-well plate at a density of 1 × 10^4 cells/well, and cultured at 37 °C for 24 h in a humidified 5% CO2 atmosphere. The next day, B16F10 cells were exposed to six concentrations of 1a or 1b (0, 1, 2, 5, 10, or 20 μM), and incubated under the same conditions for 48 h. Then, the EZ-Cytox solution (10 μL) was added to each well, and the cells mixed with the EZ-Cytox solution were further incubated for 2 h. At 450 nm, optical densities were measured using a microplate reader (VersaMax^TM, Molecular Devices, Sunnyvale, CA, USA).

[2] = biological target: T1, cellular tyrosinase in B16F10 cells (Mus musculus, UniProt P11344); experiment: Cellular tyrosinase activity (L-DOPA oxidation) in α-MSH/IBMX-stimulated cells; assay type: cell-based, murine
T1 construct: endogenous in cells; host or cells: B16F10 murine melanoma cells, stimulated with alpha-MSH and IBMX
T1 sequence (P11344 19-533): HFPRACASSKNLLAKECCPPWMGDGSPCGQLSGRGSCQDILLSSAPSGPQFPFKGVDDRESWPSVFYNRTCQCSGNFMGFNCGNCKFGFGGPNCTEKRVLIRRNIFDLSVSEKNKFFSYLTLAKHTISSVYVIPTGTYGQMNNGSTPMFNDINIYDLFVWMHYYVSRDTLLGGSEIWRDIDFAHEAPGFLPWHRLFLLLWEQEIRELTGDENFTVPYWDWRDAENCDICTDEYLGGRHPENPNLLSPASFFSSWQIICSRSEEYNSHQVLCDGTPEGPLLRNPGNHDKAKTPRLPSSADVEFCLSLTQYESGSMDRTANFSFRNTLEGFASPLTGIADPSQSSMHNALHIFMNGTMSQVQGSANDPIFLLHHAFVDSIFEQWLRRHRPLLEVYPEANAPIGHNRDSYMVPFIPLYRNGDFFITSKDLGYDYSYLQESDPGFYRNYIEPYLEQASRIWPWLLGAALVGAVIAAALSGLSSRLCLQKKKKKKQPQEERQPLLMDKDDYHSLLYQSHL
Procedure: Cellular tyrosinase activity was assessed by measuring the oxidation rate of L-DOPA as previously described, with minor modifications. In brief, B16F10 cells were seeded in a 6-well plate at 1 × 10^5 cells/well, and allowed to adhere to well bottoms for 24 h, as described in Section 2.3.5. […]. Cells were then rinsed twice with PBS, exposed to 100 µL of lysis buffer solution (90 µL of 50 mM phosphate buffer (pH 6.5), 5 µL of 2 mM PMSF, and 5 µL of 20% Triton X-100), and lysed at −80 °C for 30 min. After defrosting, cell lysates were transferred to microcentrifuge tubes and centrifuged at 12,000 rpm for 30 min at 4°C, and supernatants (80 µL) were mixed with 20 µL of L-DOPA (2 mg/mL) in a 96-well plate, and incubated for 10 min at 37 °C. Absorbances were measured at 475 nm using a microplate reader (VersaMax^TM, Molecular Devices, Sunnyvale, CA, USA).

mushroom tyrosinase = biological target: T2, mushroom tyrosinase (Agaricus bisporus, UniProt C7FF04); experiment: Mushroom tyrosinase inhibition assay; assay type: biochemical
T2 construct: purchased Sigma-Aldrich
T2 sequence (C7FF04 1-392 limits assumed): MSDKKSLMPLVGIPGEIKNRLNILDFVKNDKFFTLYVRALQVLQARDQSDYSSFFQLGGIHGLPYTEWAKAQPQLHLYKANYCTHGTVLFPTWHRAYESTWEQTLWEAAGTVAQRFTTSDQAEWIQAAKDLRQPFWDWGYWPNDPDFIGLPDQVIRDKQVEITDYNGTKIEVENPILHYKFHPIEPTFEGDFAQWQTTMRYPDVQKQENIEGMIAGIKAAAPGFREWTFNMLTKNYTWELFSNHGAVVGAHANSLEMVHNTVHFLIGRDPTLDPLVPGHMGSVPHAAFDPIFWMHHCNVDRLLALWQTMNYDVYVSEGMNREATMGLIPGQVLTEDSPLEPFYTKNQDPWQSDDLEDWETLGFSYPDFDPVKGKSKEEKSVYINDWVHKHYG
Procedure: Mushroom tyrosinase inhibitory activity was determined as described previously, with minor modifications. L-Tyrosine was used as a substrate to determine enzyme activities. […] These dose-dependent inhibition experiments were carried out three times using three to five different concentrations of test compounds to determine IC50 values. Log–linear curves and their equations were derived from the observed percentages of inhibition.

[3] = system: B16F10 murine melanoma cells; experiment: Extracellular melanin content (melanin release into medium) in α-MSH/IBMX-stimulated cells; assay type: cell-based
Procedure: The anti-melanogenic activities of 1a and 1b were determined using a standard melanin content assay, with minor changes. Briefly, B16F10 cells were seeded in the wells of a 6-well plate at a density of 1 × 10^5 cells/well, and allowed to adhere to well bottoms over 24 h under the conditions used for cell culture (Section 2.3.5). […] Absorbances of culture media at 405 nm were used to determine extracellular melanin contents.

[4] = system: B16F10 murine melanoma cells; experiment: Intracellular melanin content in α-MSH/IBMX-stimulated cells; assay type: cell-based
Procedure: The cultured cells were rinsed with PBS twice and pellets were dissolved in 200 µL of 1N-NaOH solution containing 10% DMSO for 1 h at 60 °C. Cell lysates were then transferred to a 96-well plate, and the melanin absorbances were measured in aqueous DMSO at 405 nm using a microplate reader (VersaMax^TM, Molecular Devices, Sunnyvale, CA, USA).

[5] = 10 µM, compared with kojic acid 20 µM
[6] = read-out: Mushroom tyrosinase inhibition (%)

With `Oc1ccc(-c2nc3cc(C(F)(F)F)ccc3s2)cc1` [Compound 1a, 4-(5-(Trifluoromethyl)benzo[d]thiazol-2-yl)phenol] as the compound, how does the “cytotoxic effect on B16F10 cell viability” value [1] read?
The value was “Neither compound exhibited a significant cytotoxic effect”.

What about the cellular tyrosinase activity [2, 5] of the same compound?
Its cellular tyrosinase activity is “reduced tyrosinase activity to that achieved by 20 µM kojic acid”.

And the “effect on cellular tyrosinase activity” value ([2]; 5, 10, 20 µM, IBMX + α-MSH, 48 h)?
Its value is “significantly and concentration-dependently suppressed”.

What about the melting point of the same compound?
The melting point was 187.2 to 188.9 °C.

And the IC50 (mushroom tyrosinase; L-tyrosine as substrate)?
The IC50 was 54.2 ± 0.82 µM.

What about the inhibition at 10 µM (mushroom tyrosinase; [6]) of the same compound?
The inhibition at 10 µM was 30.4 ± 0.31%.

What about the inhibition at 50 µM (mushroom tyrosinase; [6]) of the same compound?
Its inhibition at 50 µM is 48.2 ± 0.25%.

And the melanin release ([3]; 20 µM)?
The melanin release was “reduced melanin release to control levels”.

What about the “effect on melanin content in media” value ([3]; 5, 10, 20 µM, α-MSH (1 µM) + IBMX (200 µM), 48 h) of the same compound?
Its value is “concentration-dependently and significantly reduced melanin content increases”.

And the “inhibition of α-MSH/IBMX-induced intracellular melanin increase” value [4, 5]?
Its value is “more potently inhibited α-MSH/IBMX-induced increases in melanin than kojic acid at 20 µM”.

What about the “effect on intracellular melanin content” value ([4]; 5, 10, 20 µM, α-MSH + IBMX, 48 h) of the same compound?
Its value is “significantly and concentration-dependently reduced intracellular melanin increases”.

— paper PMC9311798, “A Novel Class of Potent Anti-Tyrosinase Compounds with Antioxidant Activity, 2-(Substituted phenyl)-5-(trifluoromethyl)benzo[d]thiazoles: In Vitro and In Silico Insights” (Antioxidants, 2022)
